# Columns and labels:
# [1] = test system: experimental models of senile dementia; settings: Toide et al. 1997; cited from earlier work
# [2] = test system: male rats with the focal forebrain ischemia; assay: limb-placing test after focal forebrain ischemia (middle cerebral artery occlusion 90 min); assay type: in vivo, rat; settings: for difference in limb-placing test between JTP-4819 and control groups: ischemic rats vs vehicle control
# Method: The effects of JTP-4819 on the recovery in the use of limbs assessed by the limb placing task in male rats with the focal forebrain ischemia.
# The experiment was carried out on male Spraque-Dawley rats (about 200 g), bred in B&K, Sweden. The rats were allowed to acclimatized for one week before the start of teaching of behavioural testing and subsequent operation (Table 1). During acclimatization period, the rats were housed in solid bottom Macrolon type III cages with stainless steel mesh lids (at maximum five rats in each cage). The rats had free access to standard certified pelleted food (RM1 Maintenance Expanded SQC; Special Diet Services, Essex, UK) and water. After operation, the rats were housed singly in a Macrolon cage. Some food pellets were put into a cage in order to enable to their feeding. On the second post-operative day and thereafter, the rats were housed (maximum 10 rats in one cage) in the enriched environment (Enriched rat cage system, 03-RS-R, Scanbur A/S, Lellinge, Denmark) where the floor area of one cage was 4250 cm^2. […] Tap water and pelleted food were freely available.
# Anesthesia was initiated with 4-5% halothane (30% oxygen, 65% nitrous oxide) and maintained throughout the operation with 0.5-1.5% halothane delivered via a nose cone. Body temperature was maintained at 37.0±0.5° C. using a thermoregulatory heating unit with homeothermic blanket (HB 101/2 RS, Letica Scientific Instruments). Heparin (40 IU, i.v.) was given just before the operation to prevent possible complications caused by blood coagulation. The right common carotid artery was exposed through a midline ventral cervical incision, and carefully separated from the adjacent sympathetic nerves under a stereomicroscope. The common carotid artery and internal carotid artery were then clamped with microvascular clips. The external carotid artery was ligated distally with a nylon suture and the artery was cut for induction of suture. A heparinized nylon suture (Ø0.28 mm, rounded tip) was introduced into the stump of the external carotid artery, the internal carotid artery clip was removed, and the suture was advanced into the internal carotid artery until it passed beyond the origin of the middle cerebral artery. After occlusion for 90 min, the suture was removed to allow reperfusion in the middle cerebral artery territory. The stump of the external carotid artery was electrocoagulated and the common carotid artery clip was removed. The cervical incision was closed with silk sutures after the application of 2% lidocain gel (Xylocaln® 2%, Astra Finland). In sham-operated rats, the right common carotid artery was exposed and the external carotid artery was electrocoagulated without introducing the filament into the internal carotid artery. Animals were given 0.9% NaCl (i.p.) during the first-post-operative days (days 0 and 1). They were housed singly in a Macrolon cage.
# JTP-4819 was dissolved in sterile saline. The drug was injected 1 ml/kg intraperitoneally (i.p.). […] On the testing day 2, the drug was injected after the rats were tested in a limb placing test and assigned to groups. On days 3-14, the rats were treated even if they were not tested in a limb placing test Table 1). In those days (6, 8, 10, 12, 13), the rats were injected in the afternoon, about 24 hours after the preceding injection. […]
# On the second day after operation, behavioral deficits of rats were assessed by using a limb-placing test (De Ryck et al., 1989). […]
smiles,measurement,setting,value
O=C(CO)[C@@H]1CCCN1C(=O)[C@@H]1CCCN1C(=O)NCc1ccccc1 [JTP-4819],cognition effects,[1],cognition improving effects
same,difference in limb-placing test between JTP-4819 and control groups,"[2]; 1 μmol/kg i.p. daily, from day 5 to day 17 after ischemia",significant difference (p<0.05)
same,difference in limb-placing test between JTP-4819 and control groups,"[2]; 9 μmol/kg i.p. daily, on day 3 and 9",significant difference (p<0.05)
same,recovery in limb-placing score as compared to vehicle treated rats (FIG. 1),"[2]; 0.9 or 9.0 μmol/kg intraperitoneally, especially the lower dose, day 5-17",augmented recovery
same,recovery in the use of limbs,"[2]; daily systemic administration started after unilateral focal forebrain ischemia, rats",enhanced the recovery in the use of limbs
same,limb-placing test effect after the discontinuation of drug administration,"[2]; lower dose of JTP-4819 (1 μmol/kg i.p.), after treatment days 2-14",amelioration effect also was seen

# Source: patent US20080269313A1, “Prolyl Oligopeptidase Inhibitors Ameliorating Recovery From Brain Trauma” (ORION CORPORATION, priority 2003, published 2008)
